From PMC11024961, “Effects of Chrysin and Chrysin-7-sulfate on Ochratoxin A-Albumin Interactions and on the Plasma and Kidney Levels of the Mycotoxin in Rats” (ACS Omega, 2024)
Values joined by “and” are separate entries in the source; they are usually repeats but may differ in a detail not shown here. Equal entries are not always repeated.

Legend:
[1] = Plasma and kidney levels of OTA after single i.v. OTA with or without C7S; format: in vivo, Wistar rats
Description: (§1) Male Wistar rats were obtained from Toxi-Coop Ltd. (Budapest, Hungary). The animals (weighing 150–250 g) were kept at 24 ± 2 °C, at 50–60% relative air humidity, and on a 12 h light/dark cycle in the Laboratory Animal House of the Department of Pharmacology and Pharmacotherapy (Medical School, University of Pécs) under standard pathogen-free conditions and were provided with standard rat chow and tap water ad libitum.
(§2) Stock solution of OTA (10 mg/mL) was prepared in 96 v/v% ethanol (Reanal, Budapest, Hungary). C7S (90 mg/mL) were dissolved in dimethyl sulfoxide (Fluka, Charlotte, NC, US). In the i.v. experiments, the final concentration of dimethyl sulfoxide was uniformly 1.67 v/v % in each solution administered. In the per os experiments, CHR was suspended in physiological saline by using a mortar and pestle.
In the first experiment, rats were weighed and then treated intravenously through the tail vein with OTA (50 μg/kg, 2 mL/kg, in physiological saline) without or with C7S (1 or 3 mg/kg). Before and after the treatment, rats consumed feed and water ad libitum. Blood samples (approximately 100–150 μL) were collected from the tail vein into heparinized tubes after 2 and 6 h. After 24 h, blood (cardiac puncture) and kidney samples were collected. Plasma and tissue samples were stored at −80 °C until analysis.
Sample preparation was performed as it has been previously reported.[48] Briefly, after centrifugation, rat plasma was diluted with a 2-fold volume of acetonitrile, and then samples were vortexed, sonicated for 3 min, and centrifuged for 5 min at 14,000g and 4 °C. Thereafter, a 2-fold volume of HPLC eluent (see in Section 2.6) was added to the supernatant. These samples were directly analyzed by HPLC-FLD (see Section 2.6).
After weighing, kidney samples were homogenized with a 2-fold amount of water employing a Potter–Elvehjem tissue homogenizer. Then, 100 μL of homogenate was diluted with 2-fold volume of acetonitrile, after which these samples were treated the same way as plasma samples (vortexing, sonication, centrifugation, 2-fold dilution with HPLC eluent, and then HPLC-FLD analysis).
OTA was quantified with the previously reported HPLC-FLD method,[48] employing an integrated HPLC system (Jasco, Tokyo, Japan): autosampler (AS-4050), binary pump (PU-4180), fluorescence detector (FP-920), and ChromNAV2 software. Briefly, the isocratic elution was performed with 1.0 mL/min flow rate at room temperature, using sodium borate buffer (0.01 M, pH 10.0) and ACN (87:13 v/v%) as the mobile phase. […] The fluorescence detection of the mycotoxin was carried out at 383 and 446 nm excitation and emission wavelengths, respectively.

[2] = target: T1, human serum albumin (HSA) (Homo sapiens, UniProt P02768); assay: Fluorescence emission intensity of OTA-HSA with ligands; format: binding; conditions: ligand 0–30 μM; OTA 1.0 μM, HSA 1.5 μM; λex 393 nm, λem 446 nm; inner-filter corrected
T1 construct: purchased Merck (Darmstadt, Germany) A1653
Description: (§3) Fluorescence spectroscopic studies were carried out using a Hitachi F-4500 spectrofluorometer (Tokyo, Japan). Fluorescence emission spectra were collected, and fluorescence anisotropy values were determined in phosphate-buffered saline (PBS, pH 7.4) at room temperature, using 393 and 446 nm as excitation and emission wavelengths, respectively. […] Absorption spectra of ligand molecules were also recorded employing a Jasco V730 UV–vis spectrophotometer (Tokyo, Japan), after which their inner-filter effects were corrected using the following equation:[28],[29] [drawing 1] 1 where Icor and Iobs are the corrected and the observed fluorescence emission intensities at 446 nm, respectively, while Aex and Aem are the absorbance values of the competitor ligand molecules at 393 and 446 nm, respectively.

[3] = target: T1, human serum albumin (HSA); assay: Fluorescence anisotropy of OTA-HSA with ligands; format: binding
Description: as §3
(§4) Fluorescence anisotropy (r) values were calculated employing the following equation:[10],[30] [drawing 2] 2 where IVV is the emission intensity measured in vertical positions of the polarizers at both the presample and the postsample sites, IVH is the emission intensity measured in vertical position of the polarizer at presample site and in horizontal position of the polarizer at the postsample site, while G is the instrumental factor (showing the preference of the emission optics for the horizontal orientation to the vertical orientation).

[4] = target: T2, rat serum albumin (RSA) (Rattus norvegicus, UniProt P02770); assay: Fluorescence emission intensity of OTA-RSA with ligands; format: binding; conditions: ligand 0–30 μM; OTA 1.0 μM, RSA 1.5 μM; λex 393 nm, λem 446 nm; inner-filter corrected
T2 construct: purchased Merck (Darmstadt, Germany) A6272
Description: as §3

[5] = target: T2, rat serum albumin (RSA); assay: biochemical; format: binding
Description: (§5) Albumin (with the bound ligand molecules) was sedimented with ultracentrifugation, employing the previously described method.[26],[29],[31] […] These solutions (900 μL) were centrifuged for 16 h at 170,000g and 20 °C, using an Optima MAX-XP tabletop ultracentrifuge (with an MLA-130 fixed-angle rotor; Beckman Coulter, Brea, CA, US). After 200 μL of the protein-free supernatant was carefully aspirated, the free unbound concentration of OTA was directly analyzed from the supernatant by HPLC-FLD (details in Section 2.6). Association constants (Ka) of OTA-HSA and OTA-RSA complexes were calculated based on the following equation, assuming 1:1 stoichiometry of the complex formation:[29],[32] [drawing 3] 3 where [OTA] is the concentration of the unbound free mycotoxin, [SA] is the concentration of the unbound free serum albumin, while [OTA-SA] is the molar concentration of the mycotoxin-albumin complex in the solution.
(§6) OTA was quantified with the previously reported HPLC-FLD method,[48] employing an integrated HPLC system (Jasco, Tokyo, Japan): autosampler (AS-4050), binary pump (PU-4180), fluorescence detector (FP-920), and ChromNAV2 software. Briefly, the isocratic elution was performed with 1.0 mL/min flow rate at room temperature, using sodium borate buffer (0.01 M, pH 10.0) and ACN (87:13 v/v%) as the mobile phase. Samples (20 μL) were driven through a SecurityGuard precolumn (C18, 4.0 × 3.0 mm; Phenomenex, Torrance, CA, US) linked to a Kinetex EVO (C18, 150 × 4.6 mm, 5 μm; Phenomenex) analytical column. The fluorescence detection of the mycotoxin was carried out at 383 and 446 nm excitation and emission wavelengths, respectively.

[6] = target: T1, human serum albumin (HSA); assay: biochemical; format: binding; conditions: for unbound fraction of OTA with HSA: OTA 1.0 μM, HSA 1.5 μM, PBS pH 7.4
Description: as §5, §6

[7] = tested on: HSA; design: method as in PMID 30562928; conditions: cited from earlier work
[8] = target: T2, rat serum albumin (RSA); assay: Fluorescence anisotropy of OTA-RSA with ligands; format: binding; conditions: ligand 0–30 μM; OTA 1.0 μM, RSA 1.5 μM
Description: as §3, §4

[9] = Plasma and kidney levels of OTA after repeated peroral OTA with or without CHR; format: in vivo, Wistar rats; conditions: CHR 1 or 3 mg/kg/day per os with OTA 100 μg/kg/day, three days; sampled on the fourth day
Description: as §1
as §2, with “pestle. […]” for “pestle.”
Sample preparation was performed as it has been previously reported.[48] […] These samples were directly analyzed by HPLC-FLD (see Section 2.6). […]
OTA was quantified with the previously reported HPLC-FLD method,[48] employing an integrated HPLC system (Jasco, Tokyo, Japan): autosampler (AS-4050), binary pump (PU-4180), fluorescence detector (FP-920), and ChromNAV2 software. […] The fluorescence detection of the mycotoxin was carried out at 383 and 446 nm excitation and emission wavelengths, respectively.

[10] = tested on: Bovine serum albumin (BSA); design: method as in doi:10.1016/j.jlumin.2013.08.059; conditions: cited from earlier work
[11] = target: T2, rat serum albumin (RSA); design: method as in doi:10.1016/j.jlumin.2013.08.059; conditions: cited from earlier work
[12] = design: method as in PMID 37649524; conditions: cited from earlier work
[13] = tested on: HSA; conditions: cited from earlier work
[14] = C7S 3 mg/kg i.v. with OTA 50 μg/kg i.v., 24 h
[15] = ligand 0–30 μM, OTA 1.0 μM, HSA 1.5 μM

T1 sequence (P02768 25-609): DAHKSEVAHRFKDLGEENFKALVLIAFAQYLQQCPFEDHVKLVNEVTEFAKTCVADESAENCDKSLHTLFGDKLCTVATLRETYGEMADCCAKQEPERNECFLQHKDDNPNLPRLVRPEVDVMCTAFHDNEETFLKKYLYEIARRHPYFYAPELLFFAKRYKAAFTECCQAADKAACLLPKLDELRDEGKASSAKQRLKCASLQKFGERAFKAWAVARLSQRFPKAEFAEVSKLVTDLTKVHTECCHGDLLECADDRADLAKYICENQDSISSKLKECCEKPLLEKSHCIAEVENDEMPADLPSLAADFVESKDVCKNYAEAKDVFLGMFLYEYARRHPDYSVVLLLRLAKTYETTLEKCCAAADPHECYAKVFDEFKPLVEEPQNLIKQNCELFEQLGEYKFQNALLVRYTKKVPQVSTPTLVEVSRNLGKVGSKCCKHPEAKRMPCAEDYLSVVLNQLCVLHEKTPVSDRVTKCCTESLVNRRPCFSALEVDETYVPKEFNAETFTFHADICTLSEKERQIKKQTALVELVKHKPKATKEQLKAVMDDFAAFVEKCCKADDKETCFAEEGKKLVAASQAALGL
T2 sequence (P02770 25-608): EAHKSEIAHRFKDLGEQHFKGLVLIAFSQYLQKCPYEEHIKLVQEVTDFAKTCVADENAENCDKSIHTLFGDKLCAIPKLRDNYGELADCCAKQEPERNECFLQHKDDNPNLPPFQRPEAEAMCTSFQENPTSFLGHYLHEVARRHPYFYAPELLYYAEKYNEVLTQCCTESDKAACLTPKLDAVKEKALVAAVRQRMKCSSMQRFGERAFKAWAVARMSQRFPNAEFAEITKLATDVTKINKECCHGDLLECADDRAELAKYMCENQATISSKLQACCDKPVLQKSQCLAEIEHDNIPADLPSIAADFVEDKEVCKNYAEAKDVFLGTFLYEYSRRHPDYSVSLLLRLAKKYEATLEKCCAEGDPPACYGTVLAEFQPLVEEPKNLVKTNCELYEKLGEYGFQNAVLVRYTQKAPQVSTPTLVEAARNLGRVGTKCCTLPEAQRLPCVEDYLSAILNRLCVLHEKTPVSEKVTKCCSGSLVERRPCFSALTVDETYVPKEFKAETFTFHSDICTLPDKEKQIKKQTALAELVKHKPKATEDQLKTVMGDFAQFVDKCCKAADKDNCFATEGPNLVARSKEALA

Row | Compound | effect on emission signal of OTA-HSA complex, in words [2] | effect on fluorescence anisotropy of OTA-HSA, in words [3, 15] | effect on emission signal of OTA-RSA complex, in words [4] | displacement of OTA from RSA (free fraction), in words ([5]; ligand 0–30 μM, overall) | displacement of OTA from HSA (free fraction), in words ([6]; ligand 0–30 μM, overall) | effect on fluorescence anisotropy of OTA-RSA, in words [8] | displacement of OTA from HSA (free fraction), in words ([6]; ligand 30 μM) | effect on fluorescence anisotropy of OTA-HSA, in words ([3]; ligand 15 μM) | other results
1 | O=c1cc(-c2ccccc2)oc2cc(OS(=O)(=O)O)cc(O)c12 [C7S, chrysin-7-sulfate] | strong decreases | marked reduction | strong decreases | strongly disrupted | strongly interfered |  |  |  | effect on plasma levels of OTA, in words ([1]; C7S 1 mg/kg i.v. with OTA 50 μg/kg i.v., 2, 6 and 24 h): did not induce significant changes; effect on kidney levels of OTA, in words ([1]; C7S 1 mg/kg i.v. with OTA 50 μg/kg i.v., 24 h): did not affect; effect on kidney levels of OTA, in words [1, 14]: slightly decreased; effect on plasma levels of OTA, in words [1, 14]: not statistically significant; displacement of OTA from RSA (free fraction), in words ([5]; ligand 30 μM): almost completely displaced; fold lower Ka of OTA-RSA in the presence of the ligand ([5]; ligand 30 μM): approximately 100 fold; unbound fraction of OTA with HSA ([6]; ligand 15 μM): 55%; fold lower Ka of OTA-HSA in the presence of the ligand ([6]; ligand 30 μM): approximately 100 fold; unbound fraction of OTA with HSA ([6]; ligand 30 μM): 75%; affinity to HSA, fold higher than CHR [7]: 3 fold
2 | O=c1cc(-c2ccccc2)oc2cc(O)cc(O)c12 [CHR, Chrysin] | strong decreases | only slightly decreased | strong decreases | weak displacing effects |  | only slightly decreased | only minor displacement |  | effect on kidney levels of OTA, in words [9]: did not cause statistically significant changes; effect on plasma levels of OTA, in words [9]: did not cause statistically significant changes
3 | C[C@@H]1Cc2c(Cl)cc(C(=O)N[C@@H](Cc3ccccc3)C(=O)O)c(O)c2C(=O)O1 [OTA, Ochratoxin A] |  |  |  |  |  |  |  |  | binding constant of OTA-BSA complex [10]: > 10^6 L/mol; fold weaker complex with BSA compared to HSA [10]: approximately 10 fold; fold weaker complex with RSA compared to HSA [11]: approximately 10 fold; free unbound fraction in the human circulation [12]: 0.02%; plasma elimination half-life in man [12]: approximately 35 days; association/binding constant of the OTA-HSA complex [13]: exceeds 10^7 L/mol; Kd ([5]; Ka of OTA-RSA complex, no competitor, OTA 1.0 μM, RSA up to 1.5 μM, PBS pH 7.4, 1:1 stoichiometry): 340 nM and 345 nM; Kd [6]: 40 nM
4 | C=CC1=C(C)/C(=C/c2[nH]c(Cc3[nH]c(/C=C4\NC(=O)C(C)=C4C=C)c(C)c3CCC(=O)O)c(CCC(=O)O)c2C)NC1=O [bilirubin] | remarkable decreases | smaller, gradual decreases | remarkable decreases | moderate to strong displacement |  | smaller, gradual decreases | only a minor elevation | marked decreases | displacement of OTA from HSA (free fraction), in words ([6]; ligand 3 and 15 μM): no significant increase
5 | O=C(CCCCC(=O)Nc1c(I)cc(I)c(C(=O)O)c1I)Nc1c(I)cc(I)c(C(=O)O)c1I [iodipamide] | only slightly modified | only slightly decreased | only slightly modified | weak displacing effects |  | only slightly decreased | only minor displacement |  | 
6 | hemin | remarkable decreases | smaller, gradual decreases | remarkable decreases |  | better displacing effect than bilirubin | smaller, gradual decreases |  | marked decreases | displacement of OTA from RSA (free fraction), in words ([5]; ligand 15 and 30 μM): weak to moderate impacts
